In general, pIC50 refers to the negative decadic logarithm of the IC50, by convention in mol/L. As a reminder, the inhibition is the percentage by which the read-out fell short of the control.

Here are results for 23 molecules from patent publication US7135466B2 (Kirin Beer Kabushiki Kaisha, priority 1999, dated 2006).

One test addresses T1, c-kit (Homo sapiens, UniProt P10721).
T1 construct: MO7e (human megakaryocytic leukemia cell line) which had been arrested for 20 hr; endogenous in cells; host or cells: MO7e human megakaryocytic leukemia cell line
The test can be described thus: Inhibitory activity against c-kit autophosphorylation (MO7e cells, h-SCF). It is filed as cell-based. Particulars: for pIC50: MO7e cells, 50 ng/ml h-SCF, read-out: c-kit IC50; for inhibition at 1 µM: Mo7e, figure within parentheses in −( ) or >1000( ), at 1000 nM. Put shortly: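 Ligand-induced c-kit tyrosine phosphorylation is measured in MO7e cells that were quiesced 20 hr and preincubated with compound for 1 hr prior to a 5 min pulse of 50 ng/ml human SCF. Phospho-c-kit is detected by anti-phosphotyrosine capture ELISA, A450.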

In the next test the target is T2, PDGF-Ra (Homo sapiens, UniProt P16234).
T2 construct: host or cells: G-292 human osteosarcoma cells
T2 sequence (P16234 24-1089): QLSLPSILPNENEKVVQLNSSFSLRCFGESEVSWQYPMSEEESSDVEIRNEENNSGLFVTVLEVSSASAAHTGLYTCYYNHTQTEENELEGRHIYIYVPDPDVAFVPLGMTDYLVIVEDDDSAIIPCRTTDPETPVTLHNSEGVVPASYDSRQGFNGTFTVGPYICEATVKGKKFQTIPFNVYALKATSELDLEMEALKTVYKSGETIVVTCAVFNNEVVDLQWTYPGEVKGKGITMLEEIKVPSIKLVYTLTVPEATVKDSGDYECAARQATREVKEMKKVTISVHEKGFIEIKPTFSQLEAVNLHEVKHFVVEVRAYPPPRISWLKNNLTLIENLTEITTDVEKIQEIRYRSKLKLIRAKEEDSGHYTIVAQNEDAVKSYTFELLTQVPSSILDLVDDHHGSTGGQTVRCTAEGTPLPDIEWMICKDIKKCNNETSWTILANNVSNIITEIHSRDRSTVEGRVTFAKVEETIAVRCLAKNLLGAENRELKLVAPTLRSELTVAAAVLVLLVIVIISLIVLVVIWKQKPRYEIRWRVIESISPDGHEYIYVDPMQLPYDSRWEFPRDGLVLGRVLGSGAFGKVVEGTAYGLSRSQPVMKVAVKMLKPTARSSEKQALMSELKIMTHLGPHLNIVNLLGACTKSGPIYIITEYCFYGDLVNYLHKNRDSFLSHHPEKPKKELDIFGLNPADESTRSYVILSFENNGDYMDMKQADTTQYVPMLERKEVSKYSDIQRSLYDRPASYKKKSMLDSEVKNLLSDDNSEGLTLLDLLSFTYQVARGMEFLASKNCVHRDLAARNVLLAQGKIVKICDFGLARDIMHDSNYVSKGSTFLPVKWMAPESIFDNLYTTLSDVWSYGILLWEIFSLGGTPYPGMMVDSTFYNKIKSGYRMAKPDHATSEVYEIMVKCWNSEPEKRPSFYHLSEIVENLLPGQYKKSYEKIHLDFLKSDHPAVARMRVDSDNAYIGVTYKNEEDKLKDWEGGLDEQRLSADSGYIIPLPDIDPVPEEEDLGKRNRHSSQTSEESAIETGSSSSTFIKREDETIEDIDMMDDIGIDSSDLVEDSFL
The test is described as follows: Inhibitory activity against PDGF-Ra phosphorylation by PDGF-AA stimulation using G292. It is filed as cell-based. Particulars: for pIC50: > means inhibition at indicated concentration not more than 50%, < and << not less than 50%, read-out: PDGF (E) IC50; for inhibition at 0.1 µM: G292, read-out: PDGF (E) inhibition (%) at 100 nM. A digest of the protocol:
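Read-out: A450 from a sandwich ELISA (PY-20 capture, anti-PDGF-Ra detection, peroxidase colour) of lysates from G-292 cells given compound for 1 hr at 37 °C before a 5 min challenge with PDGF-AA at 50 ng/ml.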

Where [1] appears, read: figure within parentheses in >100( ), at 100 nM.

Each structure is given as a SMILES string. pIC50: −log10 of the molar value. Where only a bound is given, the exact number is not on record here.

T1 sequence (P10721 26-976): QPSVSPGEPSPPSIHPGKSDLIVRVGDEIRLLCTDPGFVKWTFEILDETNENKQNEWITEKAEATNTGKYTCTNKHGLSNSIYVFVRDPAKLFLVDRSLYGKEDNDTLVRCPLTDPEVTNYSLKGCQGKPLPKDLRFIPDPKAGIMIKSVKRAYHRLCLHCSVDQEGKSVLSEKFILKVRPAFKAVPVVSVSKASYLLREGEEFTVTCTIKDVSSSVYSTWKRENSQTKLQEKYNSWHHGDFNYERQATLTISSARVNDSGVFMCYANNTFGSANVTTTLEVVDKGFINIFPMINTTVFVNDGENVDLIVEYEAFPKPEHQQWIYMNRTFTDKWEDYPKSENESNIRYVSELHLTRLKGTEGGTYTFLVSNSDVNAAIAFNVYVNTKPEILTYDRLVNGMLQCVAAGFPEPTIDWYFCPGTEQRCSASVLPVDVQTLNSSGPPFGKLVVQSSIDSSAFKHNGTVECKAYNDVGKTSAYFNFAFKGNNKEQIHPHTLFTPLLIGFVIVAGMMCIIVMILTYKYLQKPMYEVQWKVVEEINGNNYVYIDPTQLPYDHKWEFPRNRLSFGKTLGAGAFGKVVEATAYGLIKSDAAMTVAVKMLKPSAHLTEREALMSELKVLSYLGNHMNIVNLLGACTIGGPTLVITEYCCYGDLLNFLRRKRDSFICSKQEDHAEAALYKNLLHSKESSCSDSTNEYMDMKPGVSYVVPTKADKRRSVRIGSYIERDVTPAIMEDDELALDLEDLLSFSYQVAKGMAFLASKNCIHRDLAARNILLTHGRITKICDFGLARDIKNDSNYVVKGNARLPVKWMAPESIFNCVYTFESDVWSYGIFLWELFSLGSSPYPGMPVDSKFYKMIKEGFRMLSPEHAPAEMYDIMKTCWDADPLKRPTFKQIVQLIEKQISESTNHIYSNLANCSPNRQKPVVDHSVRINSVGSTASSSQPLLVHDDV

For `COc1cc2ncnc(Oc3ccc(NC(=S)NCCN4CCOCC4)cc3)c2cc1OC` [Example 527, N-{4-[(6,7-Dimethoxy-4-quinazolinyl)oxy]phenyl}-N′-[2-(1-morpholinyl)ethyl]thiourea], the pIC50 is 6.06 on c-kit and 7.19 at PDGF-Ra.

Regarding `CCN(CCNC(=S)Nc1ccc(Oc2ncnc3cc(OC)c(OC)cc23)cc1)c1ccccc1C` [Example 528], the pIC50 was 6.46 at c-kit and 7.48 at PDGF-Ra.

As for `COc1cc2ncnc(Oc3ccc(NC(=S)NCCN(C)C)cc3)c2cc1OC` [Example 529, N-{4-[(6,7-Dimethoxy-4-quinazolinyl)oxy]phenyl}-N′-(2-dimethylaminoethyl) thiourea], on c-kit, the inhibition at 1 µM stood at 8%. Besides, the pIC50 at PDGF-Ra is less than 7.00. Besides, the inhibition at 0.1 µM at PDGF-Ra (setting [1]) came to 38%.

As to `COc1cc2ncnc(Oc3ccc(NC(=S)NCCN4CCCC4)cc3)c2cc1OC` [Example 530, N-{4-[(6,7-Dimethoxy-4-quinazolinyl)oxy]phenyl}-N′-[2-(1-pyrrolidyl)ethyl]thiourea], the inhibition at 1 µM on c-kit is 34%. For the same molecule, at PDGF-Ra, the pIC50 is less than 7.00. Also, the inhibition at 0.1 µM on PDGF-Ra (setting [1]) was determined as 45%.

In the case of `CCCCN(CCCC)C(C)CNC(=S)Nc1ccc(Oc2ncnc3cc(OC)c(OC)cc23)cc1` (stereo not shown) [Example 532, N-{4-[(6,7-Dimethoxy-4-quinazolinyl)oxy]phenyl}-N′-(2-dibutylaminopropyl)thiourea], the negative-log IC50 (pIC50) was 6.12 at c-kit and less than 7.00 at PDGF-Ra. For the same molecule, the inhibition at 0.1 µM at PDGF-Ra (setting [1]) was found to be 44%.

Turning to `COc1cc2ncnc(Oc3ccc(NC(=S)NCCCN4CCOCC4)cc3)c2cc1OC` [Example 533, N-{4-[(6,7-Dimethoxy-4-quinazolinyl)oxy]phenyl}-N′-[3-(1-morpholino)propyl]thiourea], the pIC50 at c-kit is 6.21; on PDGF-Ra, 7.19.

Turning to `COc1cc2ncnc(Oc3ccc(NC(=S)NCCCN4CCCCC4C)cc3)c2cc1OC` (stereo not shown) [Example 534, N-{4-[(6,7-Dimethoxy-4-quinazolinyl)oxy]phenyl}-N′-{3-[1-(2-methylpiperidinyl)]propyl}thiourea], the inhibition at 1 µM on c-kit stood at 35%. Further, the negative-log IC50 (pIC50) at PDGF-Ra was 7.29.

For `COc1cc2ncnc(Oc3ccc(NC(=S)NCCN(C(C)C)C(C)C)cc3)c2cc1OC` [Example 535, N-{4-[(6,7-Dimethoxy-4-quinazolinyl)oxy]phenyl}-N′-(2-diisopropylaminoethyl)thiourea], the inhibition at 1 µM on c-kit was 27%. For the same molecule, the pIC50 at PDGF-Ra is 7.49.

In the case of `COc1cc2ncnc(Oc3ccc(NC(=S)NCCCN4CCCC4)cc3)c2cc1OC` [Example 537, N-{4-[(6,7-Dimethoxy-4-quinazolinyl)oxy]phenyl}-N′-[3-(1-pyrrolidinyl)propyl]thiourea], the inhibition at 1 µM at c-kit was 34%. The pIC50 on PDGF-Ra was less than 7.00. At PDGF-Ra (setting [1]), the inhibition at 0.1 µM came out at 34%.

As to `COc1cc2nccc(Oc3cc(C)c(NC(=S)NCCN(C)C)cc3C)c2cc1OC` [Example 538, N-{4-[(6,7-Dimethoxy-4-quinolyl)oxy]-2,5-dimethylphenyl}-N′-(2-dimethylaminoethyl)thiourea], the figures for the negative-log IC50 (pIC50) at c-kit and on PDGF-Ra were 6.11 and less than 7.00, respectively. The inhibition at 0.1 µM on PDGF-Ra (setting [1]) was 22%.

For `COc1cc2nccc(Oc3cc(C)c(NC(=S)NCCCn4ccnc4)cc3C)c2cc1OC` [Example 539], the negative-log IC50 (pIC50) on c-kit was 6.38; at PDGF-Ra it was less than 7.00. In addition, the “PDGF (E) inhibition (%) at 100 nM” value at PDGF-Ra (setting [1]) worked out at 45%.

Turning to `CCN(CCNC(=S)Nc1cc(C)c(Oc2ccnc3cc(OC)c(OC)cc23)cc1C)c1ccccc1C` [Example 540, N-{4-[(6,7-Dimethoxy-4-quinolyl)oxy]-2,5-dimethylphenyl}-N′-{2-[N-ethyl-N-(o-tolyl)amino]-ethyl}thiourea], the negative-log IC50 (pIC50) was 6.35 on c-kit and 7.32 at PDGF-Ra.

For the molecule `COc1cc2nccc(Oc3cc(C)c(NC(=S)NCCN4CCCC4)cc3C)c2cc1OC` [Example 541, N-{4-[(6,7-Dimethoxy-4-quinolyl)oxy]-2,5-dimethylphenyl}-N′-[2-(1-pyrrolidinyl)ethyl]thiourea], the negative logarithm of the IC50 (pIC50) was 6.10 on c-kit and 7.15 at PDGF-Ra.

`COc1cc2nccc(Oc3ccc(NC(=S)NCCN(C)C)c(C)c3C)c2cc1OC` [Example 542, N-{4-[(6,7-Dimethoxy-4-quinolyl)oxy]-2,3-dimethylphenyl}-N′-(2-dimethylaminoethyl)thiourea]: the pIC50 at c-kit was 6.35; on PDGF-Ra, less than 7.00. The inhibition at 0.1 µM at PDGF-Ra (setting [1]) amounted to 45%.

`COc1cc2nccc(Oc3ccc(NC(=S)NCCCn4ccnc4)c(C)c3C)c2cc1OC` [Example 543]: the pIC50 on c-kit is 6.48; on PDGF-Ra, 7.27.

With `CCN(CCNC(=S)Nc1ccc(Oc2ccnc3cc(OC)c(OC)cc23)c(C)c1C)c1ccccc1C` [Example 544, N-{4-[(6,7-Dimethoxy-4-quinolyl)oxy]-2,3-dimethylphenyl}-N′-{2-[N-ethyl-N-(o-tolyl)amino]-ethyl}thiourea], the results for the negative-log IC50 (pIC50) at c-kit and on PDGF-Ra were 6.67 and greater than 8.00, respectively.

`COc1cc2nccc(Oc3cc(C)c(NC(=S)NCCN4CCOCC4)cc3C)c2cc1OC` [Example 545, N-{4-[(6,7-Dimethoxy-4-quinolyl)oxy]-2,5-dimethylphenyl}-N′-[2-(1-morpholino)ethyl]thiourea]: the pIC50 was 6.60 on c-kit and 7.15 on PDGF-Ra.

Consider `CCN(CC)CCCNC(=S)Nc1ccc(Oc2ccnc3cc(OC)c(OC)cc23)c(C)c1C` [Example 546, N-{4-[(6,7-Dimethoxy-4-quinolyl)oxy]-2,3-dimethylphenyl}-N′-(3-diethylaminopropyl)thiourea], for which, at c-kit, the inhibition at 1 µM turned out to be 44%. Besides, the pIC50 at PDGF-Ra was 7.27.

Regarding `CCCCN(CCCC)CCCNC(=S)Nc1ccc(Oc2ccnc3cc(OC)c(OC)cc23)c(C)c1C` [Example 547, N-{4-[(6,7-Dimethoxy-4-quinolyl)oxy]-2,3-dimethylphenyl}-N′-(3-dibutylaminopropyl)thiourea], on c-kit, the inhibition at 1 µM came to 41%. In addition, at PDGF-Ra, the pIC50 is less than 7.00. For the same molecule, the inhibition at 0.1 µM on PDGF-Ra (setting [1]) is 33%.

`COc1cc2nccc(Oc3ccc(NC(=S)NCCCN4CCOCC4)c(C)c3C)c2cc1OC` [Example 548, N-{4-[(6,7-Dimethoxy-4-quinolyl)oxy]-2,3-dimethylphenyl}-N′-[3-(1-morpholino)propyl]thiourea]: the negative-log IC50 (pIC50) at c-kit is 6.57; on PDGF-Ra it was 7.34.

In the case of `COc1cc2nccc(Oc3ccc(NC(=S)NCCCN4CCCCC4C)c(C)c3C)c2cc1OC` (stereo not shown) [Example 549, N-{4-[(6,7-Dimethoxy-4-quinolyl)oxy]-2,3-dimethylphenyl}-N′-[3-(2-methylpiperidinyl)propyl]thiourea], the pIC50 at c-kit was 6.17; at PDGF-Ra it was 7.21.

For the molecule `COc1cc2nccc(Oc3ccc(NC(=S)NCCN(C(C)C)C(C)C)c(C)c3C)c2cc1OC` [Example 550, N-{4-[(6,7-Dimethoxy-4-quinolyl)oxy]-2,3-dimethylphenyl}-N′-(2-diisopropylaminoethyl)thiourea], the values for the pIC50 at c-kit and on PDGF-Ra were 6.27 and 7.11, respectively.

As for `CCCCN(CCCC)CCCNC(=S)Nc1cc(C)c(Oc2ccnc3cc(OC)c(OC)cc23)cc1C` [Example 552, N-{4-[(6,7-Dimethoxy-4-quinolyl)oxy]-2,5-dimethylphenyl}-N′-(3-dibutylaminopropyl)thiourea], the inhibition at 1 µM at c-kit worked out at 28%. For the same molecule, the negative-log IC50 (pIC50) at PDGF-Ra was less than 7.00. Further, at PDGF-Ra (setting [1]), the inhibition at 0.1 µM came to 10%.
